Source: patent US12257287B2, “Glucagon-derived peptide and use thereof” (Tianjin Institute of Pharmaceutical Research Co., Ltd., priority 2018, dated 2025)
≈ marks a conversion by molar mass, not a printed value. Marks after values point to notes of the source that are not given here. Numbered stars: 1 amine (or outer) side, 2 acyl side, 3 side chain; on linkers, the order of the positions; unused ones are H or OH. Square brackets hold non-standard residues; d marks the D form. Side chains are listed from the residue outwards. Peptide text beside a SMILES is read from it. * marks the point of attachment. C18 diacid = O=C(O)CCCCCCCCCCCCCCCCC(=O)*; γGlu = O=C(O)[C@H](CCC(=O)[*:2])N[*:1]; AEEA = NCCOCCOCC(=O)O; Aib = CC(C)(N)C(=O)O

Tests used:
GC receptor = molecular target: T1, GC receptor (Homo sapiens, UniProt P47871); assay: GC receptor mediated cAMP production in vitro (HEK293 cells transfected with GC receptor); assay type: cell-based; details: 20 min at 37° C., read-out: GCGR (nM EC50)
T1 construct: expressed in transfected cells; host or cells: HEK293 cells
T1 sequence (P47871 26-477): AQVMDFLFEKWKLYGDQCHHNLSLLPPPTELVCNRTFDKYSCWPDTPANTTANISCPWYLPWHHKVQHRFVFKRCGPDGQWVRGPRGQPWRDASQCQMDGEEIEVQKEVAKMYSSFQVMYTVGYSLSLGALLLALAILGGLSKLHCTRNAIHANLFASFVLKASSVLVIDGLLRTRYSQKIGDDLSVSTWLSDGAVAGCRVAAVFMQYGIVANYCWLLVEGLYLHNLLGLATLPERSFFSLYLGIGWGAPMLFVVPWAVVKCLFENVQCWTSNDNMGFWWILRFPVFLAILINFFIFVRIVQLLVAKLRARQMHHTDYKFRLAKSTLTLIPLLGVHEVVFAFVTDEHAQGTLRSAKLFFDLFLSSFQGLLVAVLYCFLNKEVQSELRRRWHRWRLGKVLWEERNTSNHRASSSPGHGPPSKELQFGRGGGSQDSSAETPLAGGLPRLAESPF
From the text: The medium was removed, the cells were lysed, and cAMP values were detected referring to the detection method described for the assay kit.

[1] = Effect on body weight of DIO mice after 14 days' administration; assay type: in vivo, C57BL/6J mice; details: for body weight reduction (in words): 14 days, conclusions on Tables 3 and 5
From the text: C57BL/6J mice (n=35), model group (n=30) were fed with H10060 high-fat diet to induce obesity (DIO), blank control group (n=5) were fed with standard diet, both for 34 weeks. One day before the first administration, the model group was randomly divided into groups according to their body weight (average body weight range 45.0-52.0 g), with 5 mice in each group, which respectively were model control group, positive control group (semaglutide), and test sample group (1 #-4 # are compound 1, compound 4, compound 6 and compound 22, respectively). The blank control group and model control group were given saline subcutaneously every day, while the positive control group and test sample group were administrated by subcutaneous injection every day for 14 days. The body weight of the animals was weighed and recorded every day, and the change rate of body weight (%) was calculated by comparing the body weight at the last administration day with the initial body weight. (initial body weight−last body weight)/initial body weight=body weight change rate (%). Calculation formula: […]
Calculated positive values indicate a decrease and negative values indicate an increase.
(§1) Methods are the same as that in Example 3, the test results of effects on body weight are shown in Table 5, and the effects on blood glucose are shown in Table 6. In the table, 5 #-9 # are compound 27, compound 35, compound 54, compound 57, and compound 66, respectively.

[2] = Glucose tolerance test in glucose-loaded DIO mice; assay type: in vivo; set-up: AUC reduction rate (%), Table 6: concentration or dose not given beside the values; details: for glucose tolerance / blood glucose lowering (in words): conclusions on Tables 4 and 6
Procedure: DIO mice fasted for 16 h, and 1 h after administration by subcutaneous injection, glucose solution (1 g/kg) was given intraperitoneally for glucose tolerance test. Blood glucose values were measured at 0.5, 1 and 1.5 h after glucose administration. The area under the blood glucose concentration curve (AUC) was calculated and compared with that of the model control group, and the blood glucose inhibition rate (%) was calculated.
as §1

[3] = Short-term administration: food intake and body weight in DIO mice; assay type: in vivo; details: 30 nmol/kg once every 24 h, twice, − decrease; for Rate of change in food intake (%): at 48 hours vs day before administration; for Body weight change: at 48 hours
Procedure: Method: diet-induced obese mice (DIO) with an average body weight of 52.5 g were divided into model control and test groups, 5 mice in each group. The test samples were dissolved in 10 mM PBS of pH7.4, injected once every 24 h at a dose of 30 nmol/kg, and administered twice. The model group was injected with solvent. Changes in food intake and body weight at 48 hours were measured, and the change rates were calculated compared to the day before administration.

physchem = assay type: physicochemical
[4] = Accelerated chemical stability in injection solvent system (HPLC-UV); assay type: physicochemical; details: 14 days, phosphate buffer pH 7.3 with Tween 80 and phenol, main peak area vs day 0
Procedure: The chemical stability of the compounds of the present invention in injection solution systems was evaluated by an accelerated stability test. Methods: an appropriate amount of compound of Example 1 was weighed, and dissolved in 10 mM pH8.5 sodium hydrogen phosphate buffer. The final pH value of the solution was adjusted to 7.3 with 0.1 N hydrochloric acid, and proper amounts of Tween 80 and phenol were added. The mixture was placed at 10° C. and 37° C. for 14 days, and detected by HPLC-UV. The main peak area was obtained by peak area normalization method, and the changes compared with day 0 were investigated. The HPLC detection method was the same as that in Example 6, and the mobile phase gradient was appropriately adjusted according to the situation of chromatographic peak separation.

[5] = pH 7.5, Solubility, pH 7.5, 10 mM phosphate buffer
[6] = pH 7.5, Solubility, pH 7.5, 20 mM phosphate buffer
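Wherever Solubility is given: compound added at 2 mg per mL of phosphate buffer, with the dissolved amount determined in the supernatant.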

EC50 (GC receptor)	solubility (physchem; [5])	solubility (physchem; [6])	Change in purity % (10° C.) [4]	Change in purity % (37° C.) [4]	solubility (physchem; pH 8, Solubility, pH 8.0, 10 mM phosphate buffer)	solubility (physchem; pH 8, Solubility, pH 8.0, 20 mM phosphate buffer)	SMILES	body weight change rate, Table 3 ([1]; DIO mice, subcutaneous injection every day for 14 days, (initial−last)/initial, positive values indicate a decrease)	AUC of blood glucose, Table 4 ([2]; DIO mice fasted 16 h, glucose 1 g/kg i.p. 1 h after s.c. administration, 0.5, 1, 1.5 h)	AUC reduction rate (%), Table 4 ([2]; blood glucose inhibition rate compared with model control group, DIO mice, glucose 1 g/kg i.p.)	Rate of change in food intake (%) [3]	Body weight change [3]	body weight change, Table 5 ([1]; Example 4, DIO mice, 14 days' administration, methods as in Example 3, positive values indicate a decrease, listed as 7#)	AUC of blood glucose, Table 6 ([2]; Example 4, DIO mice under glucose load, methods as in Example 3, listed as 7#)	AUC reduction rate (%), Table 6 ([2]; Example 4, compared with model control group, DIO mice under glucose load, listed as 7#)	body weight reduction (in words) ([1]; DIO mice)	glucose tolerance / blood glucose lowering (in words) ([2]; DIO mice)
0.0574 nM	> 2000 µg/mL	> 2000 µg/mL	−1.4%	−5.2%			CCCCCCCCCCCCCCCC(=O)N[C@@H](CCC(=O)N[C@@H](CCC(=O)NCCCC[C@H](NC(=O)[C@H](CC(=O)O)NC(=O)[C@H](CO)NC(=O)[C@@H](NC(=O)[C@H](Cc1ccccc1)NC(=O)[C@@H](NC(=O)CNC(=O)[C@H](CCC(N)=O)NC(=O)C(C)(C)NC(=O)[C@@H](N)Cc1c[nH]cn1)[C@@H](C)O)[C@@H](C)O)C(=O)N[C@@H](CO)C(=O)N[C@@H](CCCCN)C(=O)N[C@@H](Cc1ccc(O)cc1)C(=O)N[C@@H](CC(C)C)C(=O)N[C@@H](CCC(=O)O)C(=O)N[C@@H](CCC(=O)O)C(=O)N[C@@H](CCCNC(=N)N)C(=O)N[C@@H](C)C(=O)N[C@@H](C)C(=O)N[C@@H](CCCCN)C(=O)N[C@@H](CCC(=O)O)C(=O)N[C@@H](Cc1ccccc1)C(=O)N[C@H](C(=O)N[C@@H](C)C(=O)N[C@@H](Cc1c[nH]c2ccccc12)C(=O)N[C@@H](CC(C)C)C(=O)N[C@@H](CCC(=O)O)C(=O)N[C@@H](C)C(=O)NCC(=O)NCC(=O)N1CCC[C@H]1C(=O)N[C@@H](CO)C(=O)N[C@@H](CO)C(=O)NCC(N)=O)[C@@H](C)CC)C(=O)O)C(=O)O [Compound 1] (HELM PEPTIDE1{H.[Aib].Q.G.T.F.T.S.D.K.S.K.Y.L.E.E.R.A.A.K.E.F.I.A.W.L.E.A.G.G.P.S.S.G.[am]}|PEPTIDE2{[CCCCCCCCCCCCCCCC(=O)[*:2]].[gGlu].[gGlu]}$PEPTIDE1,PEPTIDE2,10:R3-3:R2$$$V2.0; N-terminus assumed)	28.3%	7.24 ± 1.33 mmol·h/L	65.8** %	−58%	-2.8 g					
0.026 nM							CCCCCCCCCCCCCCCC(=O)N[C@@H](CCC(=O)N[C@@H](CCC(=O)NCCCC[C@H](NC(=O)[C@H](CC(=O)O)NC(=O)[C@H](CO)NC(=O)[C@@H](NC(=O)[C@H](Cc1ccccc1)NC(=O)[C@@H](NC(=O)CNC(=O)[C@H](CCC(N)=O)NC(=O)C(C)(C)NC(=O)[C@@H](N)Cc1c[nH]cn1)[C@@H](C)O)[C@@H](C)O)C(=O)N[C@@H](CO)C(=O)N[C@@H](CCCCN)C(=O)N[C@@H](Cc1ccc(O)cc1)C(=O)N[C@@H](CC(C)C)C(=O)N[C@@H](CCC(=O)O)C(=O)N[C@@H](CCC(=O)O)C(=O)N[C@@H](CCCNC(=N)N)C(=O)N[C@@H](C)C(=O)N[C@@H](C)C(=O)N[C@@H](CCCCN)C(=O)N[C@@H](CCC(=O)O)C(=O)N[C@@H](Cc1ccccc1)C(=O)N[C@H](C(=O)N[C@@H](CCC(=O)O)C(=O)N[C@@H](Cc1c[nH]c2ccccc12)C(=O)N[C@@H](CC(C)C)C(=O)N[C@@H](CCC(=O)O)C(=O)NCC(=O)NCC(=O)N1CCC[C@H]1C(=O)N[C@@H](CO)C(=O)N[C@@H](CO)C(=O)NCC(N)=O)C(C)C)C(=O)O)C(=O)O [Compound 7] (HELM PEPTIDE1{H.[Aib].Q.G.T.F.T.S.D.K.S.K.Y.L.E.E.R.A.A.K.E.F.V.E.W.L.E.G.G.P.S.S.G.[am]}|PEPTIDE2{[CCCCCCCCCCCCCCCC(=O)[*:2]].[gGlu].[gGlu]}$PEPTIDE1,PEPTIDE2,10:R3-3:R2$$$V2.0; N-terminus assumed)						21.45	7.26 ± 1.77 mmol·h/L	63.4** %		
0.014 nM	> 2000 µg/mL	> 2000 µg/mL	−1.8%	−4.6%			CC[C@H](C)[C@H](NC(=O)[C@H](Cc1ccccc1)NC(=O)[C@H](CCC(=O)O)NC(=O)[C@H](CCCCN)NC(=O)[C@H](C)NC(=O)[C@H](C)NC(=O)[C@H](CCCNC(=N)N)NC(=O)[C@H](CCC(=O)O)NC(=O)[C@H](CCC(=O)O)NC(=O)[C@H](CC(C)C)NC(=O)[C@H](Cc1ccc(O)cc1)NC(=O)[C@H](CCCCN)NC(=O)[C@H](CO)NC(=O)[C@H](CCCCNC(=O)COCCOCCNC(=O)COCCOCCNC(=O)CC[C@H](NC(=O)CCCCCCCCCCCCCCCCC(=O)O)C(=O)O)NC(=O)[C@H](CC(=O)O)NC(=O)[C@H](CO)NC(=O)[C@@H](NC(=O)[C@H](Cc1ccccc1)NC(=O)[C@@H](NC(=O)CNC(=O)[C@H](CCC(N)=O)NC(=O)C(C)(C)NC(=O)[C@@H](N)Cc1c[nH]cn1)[C@@H](C)O)[C@@H](C)O)C(=O)N[C@@H](C)C(=O)N[C@@H](Cc1c[nH]c2ccccc12)C(=O)N[C@@H](CC(C)C)C(=O)N[C@@H](CCC(=O)O)C(=O)N[C@@H](C)C(=O)NCC(=O)NCC(=O)N1CCC[C@H]1C(=O)N[C@@H](CO)C(=O)N[C@@H](CO)C(=O)NCC(N)=O [Compound 27] (H-H[Aib]QGTFTSDK([AEEA-AEEA-γGlu-C18 diacid])SKYLEERAAKEFIAWLEAGGPSSG-NH2; N-terminus assumed)				−55%	-1.9 g				significantly reduced body weight	significantly improved glucose tolerance
0.081 nM	1460 µg/mL (≈ 343 µM)	1310 µg/mL (≈ 308 µM)	−1.1%	−4.0%	1840 µg/mL (≈ 432 µM)	1530 µg/mL (≈ 359 µM)	CCCCCCCCCCCCCCCC(=O)N[C@@H](CCC(=O)N[C@@H](CCC(=O)NCCCC[C@H](NC(=O)[C@H](C)NC(=O)[C@H](CCCNC(=N)N)NC(=O)[C@H](CCCCN)NC(=O)[C@H](CCC(=O)O)NC(=O)[C@H](CC(=O)O)NC(=O)[C@H](CC(C)C)NC(=O)[C@H](Cc1ccc(O)cc1)NC(=O)[C@H](CCCCN)NC(=O)[C@H](CO)NC(=O)[C@H](Cc1ccc(O)cc1)NC(=O)[C@H](CC(=O)O)NC(=O)[C@H](CO)NC(=O)[C@@H](NC(=O)[C@H](Cc1ccccc1)NC(=O)[C@@H](NC(=O)CNC(=O)[C@H](CCC(N)=O)NC(=O)C(C)(C)NC(=O)[C@@H](N)Cc1c[nH]cn1)[C@@H](C)O)[C@@H](C)O)C(=O)N[C@@H](CCC(=O)O)C(=O)N[C@@H](Cc1ccccc1)C(=O)N[C@H](C(=O)N[C@@H](C)C(=O)N[C@@H](Cc1c[nH]c2ccccc12)C(=O)N[C@@H](CC(C)C)C(=O)N[C@@H](CCC(=O)O)C(=O)N[C@@H](C)C(=O)NCC(=O)NCC(=O)N1CCC[C@H]1C(=O)N[C@@H](CO)C(=O)N[C@@H](CO)C(=O)NCC(N)=O)[C@@H](C)CC)C(=O)O)C(=O)O [Compound 57] (HELM PEPTIDE1{H.[Aib].Q.G.T.F.T.S.D.Y.S.K.Y.L.D.E.K.R.A.K.E.F.I.A.W.L.E.A.G.G.P.S.S.G.[am]}|PEPTIDE2{[CCCCCCCCCCCCCCCC(=O)[*:2]].[gGlu].[gGlu]}$PEPTIDE1,PEPTIDE2,20:R3-3:R2$$$V2.0; N-terminus assumed)				−71%	-2.6 g				significantly reduced body weight	significantly improved glucose tolerance
